Measured values reported in patent US20250320205A1, “STAT6 DEGRADERS” (Gilead Sciences, Inc., priority 2024, published 2025).

Each compound was assayed against T1, STAT6 (Homo sapiens, UniProt P42226) (assay: STAT6 Degrader Assay (HiBiT based, HeLa LgBiT clone 4.14 cells)). Details: HeLa; maximal STAT6 degradation.
T1 construct: These cells express endogenous STAT6; host or cells: HeLa LgBiT clone 4.14 (CRISPR knock-in of HiBiT into the endogenous STAT6 gene)
T1 sequence (P42226 1-847): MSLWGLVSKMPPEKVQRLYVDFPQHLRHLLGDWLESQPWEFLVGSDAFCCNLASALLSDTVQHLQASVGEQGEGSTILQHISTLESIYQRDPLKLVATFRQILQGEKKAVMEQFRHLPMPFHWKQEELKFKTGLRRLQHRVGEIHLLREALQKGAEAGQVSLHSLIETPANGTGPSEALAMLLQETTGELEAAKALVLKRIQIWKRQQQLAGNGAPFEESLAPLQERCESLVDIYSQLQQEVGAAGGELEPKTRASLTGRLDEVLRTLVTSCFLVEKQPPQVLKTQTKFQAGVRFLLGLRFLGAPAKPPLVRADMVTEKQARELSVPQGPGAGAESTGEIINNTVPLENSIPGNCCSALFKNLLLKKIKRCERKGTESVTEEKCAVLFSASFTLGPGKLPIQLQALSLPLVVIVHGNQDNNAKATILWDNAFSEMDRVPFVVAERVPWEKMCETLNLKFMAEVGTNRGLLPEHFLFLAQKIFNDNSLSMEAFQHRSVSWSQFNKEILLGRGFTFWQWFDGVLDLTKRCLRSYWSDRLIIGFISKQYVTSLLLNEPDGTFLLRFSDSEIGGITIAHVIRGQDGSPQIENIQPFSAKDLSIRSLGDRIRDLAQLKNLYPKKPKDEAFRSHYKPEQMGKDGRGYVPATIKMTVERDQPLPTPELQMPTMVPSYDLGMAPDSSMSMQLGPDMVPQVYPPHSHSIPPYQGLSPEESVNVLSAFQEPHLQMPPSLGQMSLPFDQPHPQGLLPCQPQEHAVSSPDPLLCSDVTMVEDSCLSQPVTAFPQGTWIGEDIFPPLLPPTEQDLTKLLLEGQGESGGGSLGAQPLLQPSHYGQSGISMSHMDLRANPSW
Type: cell-based
Procedure: This was a HiBit based assay. A HeLa cell line stably transfected with a small protein, LgBit (Large Bit) was obtained from Promega. These cells express endogenous STAT6. A small 11 amino acid gene sequence (HiBiT) was inserted in the STAT6 gene using CRISPR technology. Once STAT6 protein is expressed in the cells, the HiBiT sequence will bind the LgBit in the cells resulting in a functional NanoBiT protein, giving a luminescent tag to STAT6. Single cell clones were prepared and the clone 4.14 was selected for the assay based on that clone showing high luminescence, high STAT6 phosphorylation upon stimulation with IL-4, and inhibition of luminescence when cells were treated with STAT6 siRNA. HeLa LgBiT clone 4.14 cells were suspended in DMEM with 10% FCS, 1% Pen/Strep, Na-pyrovate and Hygromycin B, at a concentration of 1.25*105 cells pr mL. 5000 cells were added pr well of a 384 well plate and 20 nL of compound was added by Echo® liquid handler. NN6394A (terfenadine, a toxic compound) was added to control wells at 50 μM concentration to establish the assay window. In these wells the cells are dead which equals 100% degradation of STAT6. After 4-24 h of incubation at 37° C. under 5% CO2/95% air, 5 μL substrate (Nano-GLO®) was added to the wells and the plates were centrifuged and incubated for 0.5 h. The luminescence in the wells as a measure of non-degraded STAT6 was measured in a plate reader (BMG Pherastar FSX). The measured DC50 (in nM) was determined.

| Emax | SMILES |
| --- | --- |
| 70 to 80% | CNc1ccn(-c2ccnc3c2cc(CN2CC=C(c4c(C)cc(C(=O)N5CCC(CN6CCN(c7ccc(N[C@H]8CCC(=O)NC8=O)cc7F)CC6)CC5)cc4F)CC2)n3C)c(=O)c1 (single isomer, unassigned) [Example 2g55] |
| 70 to 80% | CNc1ccn(-c2ccnc3c2cc(CN2CC=C(c4c(C)cc(C(=O)N5CCC(CN6CCN(c7ccc(N[C@@H]8CCC(=O)NC8=O)cc7F)CC6)CC5)cc4F)CC2)n3C)c(=O)c1 (single isomer, unassigned) [Example 2g56] |
| 20 to 30% | CNc1ccn(-c2ccnc3c2cc([C@H](C)N2CC=C(c4c(C)cc(C(=O)N5CCC(CN6CCN(c7ncc(NC8CCC(=O)NC8=O)cc7F)CC6)CC5)cc4F)CC2)n3C)c(=O)c1 (stereo partly drawn) [Example 2g13, 3-((5-fluoro-6-(4-((1-(3-fluoro-5-methyl-4-(1-((S)-1-(1-methyl-4-(4-(methyl-amino)-2-oxopyridin-1(2H)-yl)-1H-pyrrolo[2,3-b]pyridin-2-yl)ethyl)-1,2,3,6-tetrahydro-pyridin-4-yl)benzoyl)piperi-din-4-yl)methyl)piperazin-1-yl)pyridin-3-yl)amino)piperi-dine-2,6-dione] |

Same assay, conditions: geometric mean across assay runs and compound batches; DC50 provided for test compounds with >80% Emax; read-out: STAT6 degradation DC50

| DC50 | SMILES |
| --- | --- |
| 0.2 nM | CNc1ccn(-c2ccnc3c2cc([C@H](C)N2CC=C(c4c(C)cc(C(=O)N5CCn6nc(CN7CCC(c8ccc(N[C@H]9CCC(=O)NC9=O)cc8F)CC7)cc6C5)cc4F)CC2)n3C)c(=O)c1 (single isomer, unassigned) [Example 2g16] |
| 0.2 nM | CNc1ccn(-c2ccnc3c2cc([C@H](C)N2CC=C(c4c(C)cc(C(=O)N5CCn6nc(CN7CCC(c8ccc(N[C@@H]9CCC(=O)NC9=O)cc8F)CC7)cc6C5)cc4F)CC2)n3C)c(=O)c1 (single isomer, unassigned) [Example 2g17] |
| 4.5 nM | Cc1cc(C(=O)N2CCC(CN3CCN(c4ccc(N[C@H]5CCC(=O)NC5=O)cc4F)CC3)CC2)cc(F)c1C1=CCN([C@@H](C)c2cc3c(-n4ccc5c(c4=O)CCN5)ccnc3n2C)CC1 (single isomer, unassigned) [Example 2g19] |
| 6.9 nM | Cc1cc(C(=O)N2CCC(CN3CCN(c4ccc(N[C@@H]5CCC(=O)NC5=O)cc4F)CC3)CC2)cc(F)c1C1=CCN([C@@H](C)c2cc3c(-n4ccc5c(c4=O)CCN5)ccnc3n2C)CC1 (single isomer, unassigned) [Example 2g20] |
| 3.3 nM | Cc1cc(C(=O)N2CCC(CN3CCN(c4ccc(N[C@H]5CCC(=O)NC5=O)cc4F)C[C@H]3C)CC2)cc(F)c1C1=CCN([C@@H](C)c2cc3c(-n4ccc5c(c4=O)CCN5)ccnc3n2C)CC1 (single isomer, unassigned) [Example 2g23] |
| 3 nM | Cc1cc(C(=O)N2CCC(CN3CCN(c4ccc(N[C@@H]5CCC(=O)NC5=O)cc4F)C[C@H]3C)CC2)cc(F)c1C1=CCN([C@@H](C)c2cc3c(-n4ccc5c(c4=O)CCN5)ccnc3n2C)CC1 (single isomer, unassigned) [Example 2g24] |
| 10.3 nM | CNc1cc(=O)n(-c2ccnc3c2cc([C@H](C)N2CC=C(c4c(C)cc(C(=O)N5CCC(CN6CCN(c7ccc(N[C@@H]8CCC(=O)NC8=O)cc7F)C[C@H]6C)CC5)cc4F)CC2)n3C)cc1F (single isomer, unassigned) [Example 2g28] |
| 3.6 nM | CNc1cc(=O)n(-c2ccnc3c2cc([C@H](C)N2CC=C(c4c(C)cc(C(=O)N5CCC(CN6CCN(c7ccc(N[C@H]8CCC(=O)NC8=O)cc7F)C[C@H]6C)CC5)cc4F)CC2)n3C)cc1F (single isomer, unassigned) [Example 2g29] |
| 15.1 nM | CNc1cc(=O)n(-c2ccnc3c2cc(CN2CCC(c4c(F)cc(C(=O)N5CCC(CN6CCN(c7ccc(N[C@H]8CCC(=O)NC8=O)cc7F)CC6)CC5)cc4F)CC2)n3C)cc1F (single isomer, unassigned) [Example 2g34] |
| 2.4 nM | CNc1ccn(-c2ccnc3c2cc([C@H](C)N2CC=C(c4c(C)cc(C(=O)N5CCC(CN6CCN(c7ccc(N[C@@H]8CCC(=O)NC8=O)cc7F)CC6)CC5)cc4F)CC2)n3C)c(=O)c1 (single isomer, unassigned) [Example 2g38] |
| 5 nM | CNc1ccn(-c2ccnc3c2cc([C@H](C)N2CC=C(c4c(C)cc(C(=O)N5CCC(CN6CCN(c7ccc(N[C@H]8CCC(=O)NC8=O)cc7F)CC6)CC5)cc4F)CC2)n3C)c(=O)c1 (single isomer, unassigned) [Example 2g39] |
| 12.2 nM | CNc1ccn(-c2ccnc3c2cc([C@H](C)N2CCC(c4c(C)cc(C(=O)N5CCC(CN6CCN(c7ccc(N[C@@H]8CCC(=O)NC8=O)cc7F)CC6)CC5)cc4F)CC2)n3C)c(=O)c1 (single isomer, unassigned) [Example 2g44] |
| 10.7 nM | CNc1ccn(-c2ccnc3c2cc([C@H](C)N2CCC(c4c(C)cc(C(=O)N5CCC(CN6CCN(c7ccc(N[C@H]8CCC(=O)NC8=O)cc7F)CC6)CC5)cc4F)CC2)n3C)c(=O)c1 (single isomer, unassigned) [Example 2g45] |
| 3.3 nM | CNc1ccn(-c2ccnc3c2cc([C@H](C)N2CC=C(c4c(C)cc(C(=O)N5CCC(CN6CCN(c7ccc(N[C@@H]8CCC(=O)NC8=O)cc7F)C[C@H]6C)CC5)cc4F)CC2)n3C)c(=O)c1 (single isomer, unassigned) [Example 2g47] |
| 2.4 nM | CNc1ccn(-c2ccnc3c2cc([C@H](C)N2CC=C(c4c(C)cc(C(=O)N5CCC(CN6CCN(c7ccc(N[C@H]8CCC(=O)NC8=O)cc7F)C[C@H]6C)CC5)cc4F)CC2)n3C)c(=O)c1 (single isomer, unassigned) [Example 2g48] |
| 14.8 nM | CNc1ccn(-c2ccnc3c2cc(CN2CCC(c4c(C)cc(C(=O)N5CCC(CN6CCN(c7ccc(N[C@@H]8CCC(=O)NC8=O)cc7F)CC6)CC5)cc4F)CC2)n3C)c(=O)c1 (single isomer, unassigned) [Example 2g61] |
| 18 nM | CNc1ccn(-c2ccnc3c2cc(CN2CCC(c4c(C)cc(C(=O)N5CCC(CN6CCN(c7ccc(N[C@H]8CCC(=O)NC8=O)cc7F)CC6)CC5)cc4F)CC2)n3C)c(=O)c1 (single isomer, unassigned) [Example 2g62] |
| 5.9 nM | CNc1cc(=O)n(-c2ccnc3c2cc([C@H](C)N2CC=C(c4c(C)cc(C(=O)N5CCC(CN6CCN(c7ccc(N[C@H]8CCC(=O)NC8=O)cc7F)CC6)CC5)cc4F)CC2)n3C)cc1F (single isomer, unassigned) [Example 2g92] |
| 7.2 nM | CNc1cc(=O)n(-c2ccnc3c2cc([C@H](C)N2CC=C(c4c(C)cc(C(=O)N5CCC(CN6CCN(c7ccc(N[C@@H]8CCC(=O)NC8=O)cc7F)CC6)CC5)cc4F)CC2)n3C)cc1F (single isomer, unassigned) [Example 2g93] |
| 11 nM | CNc1ccn(-c2ccnc3c2cc([C@H](C)N2CC=C(c4c(C)cc(C(=O)N5CCC(CN6CCN(c7ncc(N[C@H]8CCC(=O)NC8=O)cc7F)C[C@@H]6C)CC5)cc4F)CC2)n3C)c(=O)c1 (single isomer, unassigned) [Example 2g95] |
| 14 nM | CNc1ccn(-c2ccnc3c2cc([C@H](C)N2CC=C(c4c(C)cc(C(=O)N5CCC(CN6CCN(c7ncc(N[C@@H]8CCC(=O)NC8=O)cc7F)C[C@@H]6C)CC5)cc4F)CC2)n3C)c(=O)c1 (single isomer, unassigned) [Example 2g96] |
| 22.2 nM | CNc1ccn(-c2ccnc3c2cc([C@H](C)N2CC=C(c4c(C)cc(C(=O)N5CCC(CN6CCN(c7ccc(N[C@@H]8CCC(=O)NC8=O)cc7F)C[C@@H]6C)CC5)cc4F)CC2)n3C)c(=O)c1 (single isomer, unassigned) [Example 2g99] |
| 7.66 nM | CNc1ccn(-c2ccnc3c2cc([C@H](C)N2CC=C(c4c(F)cc(C(=O)N5CCC(CN6CCN(c7ccc(N[C@H]8CCC(=O)NC8=O)cc7F)CC6)CC5)cc4F)CC2)n3C)c(=O)c1 (single isomer, unassigned) [Example 2g106] |
